Test results reported in US20170252367A1, “PHARMACEUTICAL COMPOSITIONS AND METHODS RELATING TO INHIBITING FIBROUS ADHESIONS OR INFLAMMATORY DISEASE USING LOW SULPHATE FUCANS” (ARC Medical Devices, Inc., priority 2004, published 2017).
Where a name gives a salt, the structure may show the parent alone.

System: fibrous adhesions between the caecum and the sidewall
Experiment: Rat caecal-sidewall surgical adhesion model, drug loaded hyaluronic acid film (Example 1)
Assay type: in vivo
Conditions: for inhibition of all adhesions (zero on the Total Adhesion Value scale) in at least one test animal: agent administered to the cecal-sidewall site
Excerpt: In one embodiment, the efficacy of the given drug or drug combination can be assessed as a reduction of the average Total Adhesion Value (strength×area; “TAV”) of the drug or combination versus a given standard, for example a drug-loaded sodium hyaluronate film versus a sham or a sodium hyaluronate film alone in the rat cecal-sidewall model for surgical fibrous adhesions.
The rat caecal sidewall model of surgical adhesions was used to investigate the effect of administration of each agent discussed herein (hereafter referred to as the drug) for the prevention of post-surgical type of fibrous adhesions. In this model, rats were divided into groups of 4. After surgical trauma, the rats were either untreated, treated with crosslinked hyaluronic acid (HA) film, or crosslinked HA film containing drug at the following concentrations in the film (% w/w):
Animal Studies. […] Only animals that appeared grossly normal (i.e., showing a clean unruffled coat, bright clear eyes and an active posture) were used in the study. Animals were randomly assigned to treatment groups, weighed and anesthetized with isoflurane gas. The abdomen was shaved and cleaned with a skin-antibacterial cleanser (Steri-Stat 2%) and wiped with a chlorohexane soaked gauze. A nick was made in one of the tail veins to elicit a small amount of blood (<100 mL). A white blood cell count was performed on this blood sample. An antibiotic (40,000 IU/kg of depopenicillin) was injected into the right thigh and an analgesic (0.01 mg/kg of buprenorphine) was injected into the left thigh of each rat. A 4 cm incision was made in the skin beginning approximately 2 cm caudal to the linea alba while the muscle was tended with forceps. […] Scraping was in the opposite direction to which the blade was pointing. The scraped caecum was wrapped in saline-soaked gauze. Doynes were used to separate the peritoneal wall from the skin, and the peritoneal wall was inverted using the doynes to expose the inside of the wall. A rectangular injury roughly 1.2 cm by 1.8 cm was made by shallow incisions to the peritoneal wall. The top membrane and a layer of muscle tissue was removed using forceps. The caecum was stitched to the four corners of the rectangle using a 5-0 suture, and without tying off the top two stitches. A piece of film was placed onto the abraded rectangle and then the top two stitches were tied firmly. In the case of the untreated control group, no film was placed over the abraded site. The exposed organs were replaced in the abdomen in such a way as to prevent torsional stress on the intestines. […] A collar was placed around the neck of the animal to prevent it from interfering with the stitches. The rat was placed in a clean cage and warmed with a heating lamp until consciousness was regained.

Compound: CCOC(=O)[C@H](CCc1ccccc1)N[C@@H](C)C(=O)N1CCC[C@H]1C(=O)O [enalapril maleate, Enalapril Maleate]
- reduction in adhesion score versus control, one-tailed Student's t-test (p<0.05) (5% w/w in HA film): statistically significant

Compound: N.N.[Cl][Pt][Cl] [cisplatin, Cisplatin]
- reduction in adhesion score versus control, one-tailed Student's t-test (p<0.05) (2% w/w in HA film): statistically significant
- inhibition of all adhesions (zero on the Total Adhesion Value scale) in at least one test animal: completely inhibited fibrous adhesions

Compound: CC[C@H]1OC(=O)[C@H](C)[C@@H](O[C@H]2C[C@@](C)(OC)[C@@H](O)[C@H](C)O2)[C@H](C)[C@@H](O[C@@H]2O[C@H](C)C[C@H](N(C)C)[C@H]2O)[C@](C)(O)C[C@@H](C)C(=O)[C@H](C)[C@@H](O)[C@]1(C)O [erythromycin, Erythromycin]
- reduction in adhesion score versus control, one-tailed Student's t-test (p<0.05) (5% w/w in HA film): statistically significant

Compound: CC(=O)O[C@@]12CO[C@@H]1C[C@H](O)[C@@]1(C)C(=O)[C@H](O)C3=C(C)[C@@H](OC(=O)[C@H](O)[C@@H](NC(=O)OC(C)(C)C)c4ccccc4)C[C@@](O)([C@@H](OC(=O)c4ccccc4)[C@H]21)C3(C)C [docetaxel, Docetaxel]
- inhibition of all adhesions (zero on the Total Adhesion Value scale) in at least one test animal: completely inhibited fibrous adhesions

Compound: CN(Cc1cnc2nc(N)nc(N)c2n1)c1ccc(C(=O)N[C@@H](CCC(=O)O)C(=O)O)cc1 [methotrexate, Methotrexate]
- inhibition of all adhesions (zero on the Total Adhesion Value scale) in at least one test animal: completely inhibited fibrous adhesions
